# Data reported in patent publication US20050202488A1, “Assay for therapies that inhibit expression of the cytosolic Cu/Zn superoxide dismutase (SOD1) gene” (The General Hospital Corporation, priority 2004, published 2005).
# Test system: human SOD1 promoter
# Assay: SOD1 promoter-EGFP reporter high through-put screening assay in stably transfected PC12 cells
# Type: cell-based, rat
# Conditions: PC12 stable cell line treated 24 hrs with increasing mitomycin C concentration; FIG. 2
# Text: We have developed a cell-based, fluorescent high through-put screening assay to identify compounds that reduce SOD1 expression using a stable rat pheochromocytoma PC12 cell line with 2.2 kb of human SOD1 promoter sequence driving EGFP expression (FIG. 1).
# The human SOD1 promoter was amplified by PCR from a control DNA sample using primers 5′ […] 3′ (SEQ ID NO:3) and 5′ […] 3′ (SEQ ID NO:4). Restriction sites were incorporated into the primers although these were not used for the cloning but to aid transfer into additional vectors in the future. PCR reactions were carried out in a final volume of 40 μl on a thermocycler (Hybaid). PCR reactions contained a final concentration of 3 U Taq polymerase (New England Biolabs, Beverly, Mass.), 150 ng of DNA, 1×PCR buffer, […] of each dNTP, 40 pmoles of forward and reverse primers (MWG-Biotech, High Point, N.C.), 2.5 mM MgCl2, and 5% DMSO. […]
# Initial testing of the assay has been carried out using a known inhibitor of SOD1 expression, mitomycin C (Cho C., et al., (1997), The transcriptional repression of the human Cu/Zn superoxide dismutase(sod1) gene by the anticancer drug, mitomycin C(MMC), Biochem Mol Biol Int., 42:949-56). […] The level of EGFP fluorescence was read on a Wallac plate reader (Perkin Elmer, Boston, Mass.) (excitation 485 nm, emission 535 nm). […]
structure (smiles),measurement,value
CO[C@@]12[C@H](COC(N)=O)C3=C(C(=O)C(C)=C(N)C3=O)N1C[C@@H]1N[C@@H]12 [mitomycin C],EGFP fluorescence (relative expression level),progressive decrease in fluorescence
